# Assay results published in patent US20240148664A1, “LIPID AND COMPOSITION” (SOGO PHARMACEUTICAL CO., LTD., priority 2021, published 2024).
# Entries after “also recorded” stand apart in the source; their conditions may differ.
# How the values were obtained:
# [1] = tested on: HEK293T cells and NIH3T3 cells; assay: Evaluation of toxicity (CellTiter-Fluor Cell Viability Assay, CTF); type: cell-based; conditions: lipid nanoparticle containing mRNA; number of surviving cells relative to cells without lipid nanoparticle set at 1; one rating per lipid, printed on the HEK293T line
# Experimental: For lipids (Ia), (Ib), and (Ie) of Examples 1, 2, and 5, a cell experiment was carried out by using HEK293T cells and NIH3T3 cells in order to evaluate lipid nanoparticles encapsulating an mRNA. By transfecting the cells with lipid nanoparticles and measuring the amount of a predetermined protein produced, the performance of the lipid nanoparticles used can be evaluated. Hereinafter, the procedure of the cell experiment will be shown.
# A. Seeding of Cells • (i) A liquid medium (DMEM High glucose, FBS+, P/S+) was temperature-controlled in an incubator set at 37° C. • (ii) A cryotube containing cells was taken out from a −80° C. freezer and thawed at once in the incubator set at 37° C. • (iii) A test tube was subjected to a centrifuge to precipitate the cells. • (iv) The supernatant was aspirated, and the liquid medium was added and gently tapped to disperse the cells. • (v) A small amount of the cells-dispersed liquid medium was collected, and the number of cells was observed and counted under a microscope. • (vi) The cells were seeded in three 24-well black plates such that the number of cells was 1×10^4 cells per well. The 24-well black plates were placed in an incubator, and the cells were cultured for 24 hours under conditions of 37° C. and 5% CO2. […]
# D. Evaluation of Toxicity (CellTiter-Fluor (Registered Trademark) Cell Viability Assay) • (i) The CellTiter-Fluor (registered trademark) Cell Viability (CTF) Assay Reagent was completely thawed in a 37° C. water bath. • (ii) GF-AFC Substrate was uniformly mixed by using a vortex mixer. • (iii) The required amounts of Buffer and GF-AFC Substrate attached to the CTF Assay Reagent (Kit) were mixed at a mixing ratio of 10 mL:10 μL. • (iv) 100 μL per well of the mixed CTF Reagent mixture was added to a 24-well black plate containing the cells cultured in B. (v) above, and the plate was quickly shielded from light with aluminum foil, and then shaken on a plate shaker for 30 seconds. • (v) The plate was placed in an incubator, […], and the cells were cultured for 30 minutes under conditions of 37° C. and 5% CO2. • (vi) The fluorescence intensity was measured with a plate reader (excitation wavelength of 380 nm, fluorescence wavelength of 505 nm). Based on the obtained measurement results, the number of surviving cells was calculated with the fluorescence intensity of cells to which no lipid nanoparticle was added set at 1. […]
# mice = assay: In vivo animal experiment: protein expression level after intramuscular administration of mRNA lipid nanoparticles (IVIS luminescence); conditions: intramuscular left hind leg, 1.25 μg mRNA/mouse, time point of the value not stated
# Experimental: An experiment was carried out in mice in order to evaluate lipid nanoparticles encapsulating an mRNA. By injecting mice with a solution including lipid nanoparticles to transfect the mice and measuring the amount of a predetermined protein produced, the performance of the lipid nanoparticles used can be evaluated. Hereinafter, the procedure of the experiment will be shown.
# By using lipids (Ib), (Ik), and (II) of Examples 2, 11, and 12, lipid nanoparticle-containing solutions for the in vivo animal experiment were prepared. […]
# 50 μL (1.25 μg/mouse, in terms of amount of mRNA) of the solution for administration was intramuscularly administered to the left hind leg of mice. […] 10 Minutes after administration of the luciferin solution, the amount of luminescence at a predetermined time after administration was measured under isoflurane anesthesia with an in vivo imaging system (manufactured by Xenogen, IVIS) to calculate the protein expression level.
smiles,measurement,setting,value
"CCCCCCCC/C=C\CCCCCCCCC(CCCCCCC/C=C\CCCCCCCC)OC(=O)C(CC(=O)O)NC(=O)C(N)CCCNC(=N)N (centres unmarked) [Example 1, 3-(2-amino-5-guanidinopentanamido)-4-(((9Z,27Z)-hexatriaconta-9,27-dien-18-yl)oxy)-4-oxobutanoic acid]",CTF Assay,[1],"low cytotoxicity; also recorded: ⊚ (When the number of surviving cells was more than 0.80 and 1.00 or less, a rating of double-circle (excellent) was given)"
"CCCCCCCC/C=C\CCCCCCCCC(CCCCCCC/C=C\CCCCCCCC)OC(=O)C(CCC(=O)O)NC(=O)C(N)CCCNC(=N)N (centres unmarked) [Example 2, 4-(2-amino-5-guanidinopentanamido)-5-(((9Z,27Z)-hexatriaconta-9,27-dien-18-yl)oxy)-5-oxopentanoic acid]",CTF Assay,[1],"low cytotoxicity; also recorded: ⊚ (When the number of surviving cells was more than 0.80 and 1.00 or less, a rating of double-circle (excellent) was given)"
same,Protein expression level,mice; PEG-modified lipid (PEG2000-DMG 1.5 mol %) present,"130,000"
same,Protein expression level,mice; PEG-modified lipid absent,"13,000"
"CCCCCCCC/C=C\CCCCCCCCC(CCCCCCC/C=C\CCCCCCCC)OC(=O)C(NC(=O)C(N)CCCNC(=N)N)C(C)O [Example 5, (9Z,27Z)-hexatriaconta-9,27-dien-18-yl (2S)-2-((S)-2-amino-5-guanidinopentanamido)-3-hydroxybutanoate]",CTF Assay,[1],"low cytotoxicity; also recorded: ⊚ (When the number of surviving cells was more than 0.80 and 1.00 or less, a rating of double-circle (excellent) was given)"
